Read-outs that look alike come from different tables or passages of the source.
Columns and labels:
[1] = Nasal absorption of hydroxocobalamin nasal spray in healthy volunteers; type: in vivo, human
Description: Healthy volunteers received a dose of 500 μg hydroxocobalamin in 50 μl nasal spray containing as main constituents hydroxocobalamin, mannitol 10% w/v, propylene glycol 10% v/v and water (total dose 500 μg hydroxocobalamin HCl) using an Aptar VP7 spray pump. The following increases of hydroxocobalamin blood levels (increase from C t=0 to Cmax after 30 minutes) were measured: […]

[2] = 6 Crohn's disease patients, 1500 μg nasal, cited from earlier work
[3] = geriatric patients, cited from earlier work
[4] = about 0.1% (w/w); versus benzalkonium chloride; cited from earlier work
[5] = system: nasal epithelial cells; conditions: 1% concentration; cited from earlier work
[6] = healthy volunteers, 500 μg nasal spray

Q: What does the source list for `C/C1=C2/[N-][C@H]([C@H](CC(N)=O)[C@@]2(C)CCC(=O)NC[C@@H](C)OP(=O)([O-])O[C@H]2[C@@H](O)[C@@H](n3cnc4cc(C)c(C)cc43)O[C@@H]2CO)[C@]2(C)N=C(/C(C)=C3N=C(/C=C4N=C1[C@@H](CCC(N)=O)C\4(C)C)[C@@H](CCC(N)=O)[C@]\3(C)CC(N)=O)[C@@H](CCC(N)=O)[C@]2(C)CC(N)=O.[Co+3].[OH-]` [hydroxocobalamin]?
A: irritation in the nose [1, 6]: None of the volunteers; presence of red crustae in the nose afterwards [1, 6]: None of the volunteers; CV (coefficient of variation) of mean increase ([1]; healthy volunteers, 500 μg nasal spray, mannitol 10% w/v, propylene glycol 10% v/v): 23%; vitamin B12 Cmax levels ([1]; healthy volunteers, 500 μg nasal spray, exceeded in none of the volunteers): ≤ 1.5 ng/mL; Mean increase per 500 μg Hydroxocobalamin ([1]; healthy volunteers, nasal spray, mannitol 10% w/v, propylene glycol 10% v/v, water, SD=127 pg/ml): 549 pg/mL; increase of hydroxocobalamin blood levels, alternative composition ([1]; nasal spray with mannitol 5% w/v, propylene glycol 15% v/v and water): Comparable results; mean increase in vitamin B12 level ([2]; three days, SD 645 pg/ml): 1520 pg/mL; CV (coefficient of variation) of mean increase [2]: 42.5%; Cmax levels (±SD) after nasal administration ([3]; dose of 750 μg): 2.7 ± 1.2 ng/mL; Cmax levels (±SD) after nasal administration ([3]; dose): 4.7 ± 3.4 ng/mL

Q: Which “safety as a preservative in nasal products” value [4] does the source give for `C/C=C/C=C/C(=O)[O-].[K+]` [potassium sorbate] here?
A: The value was “much more safe than benzalkonium chloride”.

Q: Which cellular damage [5] does the source give for `OC[C@@H](O)[C@@H](O)[C@H](O)[C@H](O)CO` [mannitol] here?
A: The cellular damage was “no cellular damage”.
